Measured values taken from patent US20080171720A1, “Nutritional Supplement For Hiv Patients” (N.V. Nutricia, priority 2005, published 2008).

System: intestinal tight junction permeability
Assay: Inflammatory mediated intestinal tight junction permeability
Conditions: no method or data given

CCCCC/C=C\C/C=C\C/C=C\CCCCC(=O)O [GLA, gamma linolenic acid]
reduction of inflammatory mediated intestinal tight junction permeability: effectively reduce inflammatory mediated intestinal tight junction permeability
